Measured values taken from patent US20220386606A1, “SPECIFICALLY SUBSTITUTED 3-PHENYL-5-SPIROCYCLOPENTYL-3-PYRROLIN-2-ONES AND THEIR USE AS HERBICIDES” (Bayer Aktiengesellschaft, priority 2019, published 2022).

How the values were obtained:
[1] = system: SETVI; assay: Post-emergence herbicidal action against SETVI; type: in vivo, Setaria viridis; details: 80 g/ha, visual assessment about 3 weeks after treatment vs untreated controls
Summary of the method: (§1)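 Weeds were grown in sandy loam in a greenhouse and treated at the one-leaf stage, 2 to 3 weeks after sowing. WP or EC formulations were sprayed onto green parts at 600 to 800 l/ha water with 0.2% wetting agent. Visual % action versus untreated controls was scored after about 3 weeks.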

[2] = system: ALOMY; assay: Post-emergence herbicidal action against ALOMY; type: in vivo, Alopecurus myosuroides; details: 80 g/ha, visual assessment after about 3 weeks
Summary of the method: as §1

[3] = system: LOLRI; assay: Post-emergence herbicidal action against LOLRI; type: in vivo, Lolium rigidum; details: 80 g/ha, visual assessment about 3 weeks after treatment vs untreated controls
Summary of the method: as §1

[4] = system: ECHCG; assay: Post-emergence herbicidal action against ECHCG; type: in vivo, Echinochloa crus-galli; details: 80 g/ha, visual assessment about 3 weeks after treatment vs untreated controls
Summary of the method: as §1

[5] = system: LOLRI; assay: Pre-emergence herbicidal action against LOLRI (Table 8, titled post-emergence at 320 g/ha); type: in vivo, Lolium rigidum; details: table stands in the pre-emergence section
Summary of the method: (§2)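 Scoring is visual, 3 weeks post-application, on a 0 to 100% scale relative to untreated controls (100% = plants died). Treatment is pre-emergence: aqueous suspensions or emulsions applied to the covering soil at 600 to 800 L/ha with 0.2% wetting agent.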

[6] = system: AVEFA; assay: Pre-emergence herbicidal action against AVEFA; type: in vivo, Avena fatua; details: 320 g/ha, scored visually after 3 weeks vs untreated controls
Summary of the method: as §2

[7] = system: SETVI; assay: Pre-emergence herbicidal action against SETVI; type: in vivo, Setaria viridis; details: 320 g/ha, scored visually after 3 weeks vs untreated controls
Summary of the method: as §2

[8] = system: AVEFA; assay: Post-emergence herbicidal action against AVEFA; type: in vivo, Avena fatua; details: 80 g/ha, visual assessment after about 3 weeks
Summary of the method: as §1

[9] = system: PHBPU; assay: Post-emergence herbicidal action against PHBPU; type: in vivo; details: assessed visually after about 3 weeks, 100% = plants have died, 0% = like control plants
Protocol: (§3) Seeds of monocotyledonous and dicotyledonous weed and crop plants are laid out in sandy loam soil in wood-fiber pots, covered with soil and cultivated in a greenhouse under good growth conditions. 2 to 3 weeks after sowing, the test plants are treated at the one-leaf stage. The compounds of the invention, formulated in the form of wettable powders (WP) or as emulsion concentrates (EC), are then sprayed onto the green parts of the plants as aqueous suspension or emulsion at a water application rate equating to 600 to 800 l/ha with addition of 0.2% wetting agent. After the test plants have been left to stand in the greenhouse under optimal growth conditions for about 3 weeks, the action of the preparations is assessed visually in comparison to untreated controls (herbicidal action in percent (%): 100% activity=the plants have died, 0% activity=like control plants).

[10] = system: DIGSA; assay: Post-emergence herbicidal action against DIGSA; type: in vivo, Digitaria sanguinalis; details: 80 g/ha, visual assessment about 3 weeks after treatment vs untreated controls
Summary of the method: as §1

[11] = system: DIGSA; assay: Pre-emergence herbicidal action against DIGSA; type: in vivo, Digitaria sanguinalis; details: 320 g/ha, scored visually after 3 weeks vs untreated controls
Summary of the method: as §2

[12] = system: POLCO; assay: Pre-emergence herbicidal action against POLCO; type: in vivo, Polygonum convolvulus; details: 320 g/ha
Summary of the method: as §2

[13] = system: AMARE; assay: Post-emergence herbicidal action against AMARE; type: in vivo, Amaranthus retroflexus; details: 80 g/ha, visual assessment about 3 weeks after treatment vs untreated controls
Protocol: as §3

[14] = system: VERPE; assay: Post-emergence herbicidal action against VERPE; type: in vivo, Veronica persica; details: 80 g/ha, visual assessment about 3 weeks after treatment vs untreated controls
Protocol: as §3

[15] = system: VIOTR; assay: Pre-emergence herbicidal action against VIOTR; type: in vivo, Viola tricolor; details: 320 g/ha
Summary of the method: as §2

[16] = system: ECHCG; assay: Pre-emergence herbicidal action against ECHCG; type: in vivo, Echinochloa crus-galli; details: 320 g/ha, scored visually after 3 weeks vs untreated controls
Summary of the method: as §2

[17] = system: AMARE; assay: Pre-emergence herbicidal action against AMARE; type: in vivo, Amaranthus retroflexus; details: 320 g/ha
Summary of the method: as §2

[18] = system: ABUTH; assay: Post-emergence herbicidal action against ABUTH; type: in vivo, Abutylon threophrasti; details: 80 g/ha, visual assessment about 3 weeks after treatment vs untreated controls
Summary of the method: as §1

[19] = system: ALOMY; assay: Pre-emergence herbicidal action against ALOMY; type: in vivo, Alopecurus myosuroides; details: 320 g/ha, scored visually after 3 weeks vs untreated controls
Summary of the method: as §2

[20] = system: POLCO; assay: Post-emergence herbicidal action against POLCO; type: in vivo, Polygonum convolvulus; details: 80 g/ha, visual assessment about 3 weeks after treatment vs untreated controls
Protocol: as §3

[21] = system: VERPE; assay: Pre-emergence herbicidal action against VERPE; type: in vivo, Veronica persica; details: 320 g/ha
Summary of the method: as §2

| SMILES | Post-emergence action against SETVI in % [1] | Post-emergence action against ALOMY in % [2] | Post-emergence action against LOLRI in % [3] | Post-emergence action against ECHCG in % [4] | Pre-emergence herbicidal action against LOLRI in % [5] | Pre-emergence action against AVEFA in % [6] | Pre-emergence action against SETVI in % [7] | Post-emergence action against AVEFA in % [8] | Post-emergence action against DIGSA in % [10] | Pre-emergence action against DIGSA in % [11] | Pre-emergence action against POLCO in % [12] | Pre-emergence action against VIOTR in % [15] | Pre-emergence action against ECHCG in % [16] | Pre-emergence action against ALOMY in % [19] | also measured |
| --- | --- | --- | --- | --- | --- | --- | --- | --- | --- | --- | --- | --- | --- | --- | --- |
| CC#Cc1cc(F)c(C2=C(O)C3(CCC(COC)C3)NC2=O)c(OC)c1 (stereo not shown) [Example I-41] | 100% | 100% | 90% | 100% | 100% | 80% | 100% | 90% | 100% | 100% | – | – | – | – | Post-emergence action at 80 g/ha against PHBPU in % [9]: 80% |
| CC#Cc1cc(C)c(C2=C(OC(=O)OCC)C3(CCC(COC)C3)NC2=O)c(F)c1 (stereo not shown) [Example P-52] | – | 100% | 100% | 100% | 100% | 90% | 100% | 90% | 100% | 100% | 80% | 90% | 100% | 100% | Post-emergence action against AMARE in % [13]: 80%; Post-emergence action against VERPE in % [14]: 80%; Pre-emergence action against AMARE in % [17]: 80%; Post-emergence action against ABUTH in % [18]: 80% |
| CC#Cc1cc(Br)c(C2=C(O)C3(CCC(COC)C3)NC2=O)c(OC)c1 (stereo not shown) [Example I-10] | 100% | 100% | 100% | 100% | 100% | 100% | 100% | – | 100% | 100% | 80% | 100% | 100% | 100% | Post-emergence action against POLCO in % [20]: 80%; Pre-emergence action against VERPE in % [21]: 100% |
